Key:
Format in all cases: functional
BT-549 = assay: Cytotoxicity against Homo sapiens (human) BT549 cells assessed as cell growth at 10 uM after 48 hr by SRB assay relative to control; settings: BT-549, 48 h, read-out: Activity
A498 [1] = assay: Cytotoxicity against Homo sapiens (human) A498 cells after 48 hr by SRB assay; settings: A498, 48 h
[2] = tested on: Photobacterium leiognathi; assay: Growth inhibition of Photobacterium leiognathi Sh1 assessed as bio-luminescence at 0.1 mg/ml after 16 to 18 hr by chronic action test relative to control; design: scale not given: the % may be the effect or the level left
HCT-116 = assay: Cytotoxicity against Homo sapiens (human) HCT116 cells assessed as cell growth at 10 uM after 48 hr by SRB assay relative to control; settings: HCT-116, 48 h, read-out: Activity
[3] = tested on: Photobacterium leiognathi; assay: Growth inhibition of Photobacterium leiognathi Sh1 assessed as bio-luminescence at 0.025 mg/ml after 10 min by acute action test relative to control; design: scale not given: the % may be the effect or the level left
HOP-62 = assay: Cytotoxicity against Homo sapiens (human) HOP62 cells after 48 hr by SRB assay; settings: HOP-62, 48 h
NCI-H460 [4] = assay: Cytotoxicity against Homo sapiens (human) NCI-H460 cells after 48 hr by SRB assay; settings: NCI-H460, 48 h
[5] = tested on: Photobacterium leiognathi; assay: Growth inhibition of Photobacterium leiognathi Sh1 assessed as bio-luminescence at 0.25 mg/ml after 16 to 18 hr by chronic action test relative to control; design: scale not given: the % may be the effect or the level left
CAKI-1 = assay: Cytotoxicity against Homo sapiens (human) Caki1 cells assessed as cell growth at 10 uM after 48 hr by SRB assay relative to control; settings: CAKI-1, 48 h, read-out: Activity
NCI-H522 = assay: Cytotoxicity against Homo sapiens (human) NCI-H522 cells after 48 hr by SRB assay; settings: NCI-H522, 48 h
U-251 = assay: Cytotoxicity against Homo sapiens (human) U251 cells assessed as cell growth at 10 uM after 48 hr by SRB assay relative to control; settings: U-251, 48 h, read-out: Activity
[6] = tested on: Photobacterium leiognathi; assay: Growth inhibition of Photobacterium leiognathi Sh1 assessed as bio-luminescence at 0.025 mg/ml after 16 to 18 hr by chronic action test relative to control; design: scale not given: the % may be the effect or the level left
[7] = tested on: Photobacterium leiognathi; assay: Growth inhibition of Photobacterium leiognathi Sh1 assessed as bio-luminescence at 0.1 mg/ml after 10 min by acute action test relative to control; design: scale not given: the % may be the effect or the level left
HT-29 = assay: Cytotoxicity against Homo sapiens (human) HT-29 cells assessed as cell growth at 10 uM after 48 hr by SRB assay relative to control; settings: HT-29, 48 h, read-out: Activity
SW-620 = assay: Cytotoxicity against Homo sapiens (human) SW620 cells assessed as cell growth at 10 uM after 48 hr by SRB assay relative to control; settings: SW-620, 48 h, read-out: Activity
SNB-75 = assay: Cytotoxicity against Homo sapiens (human) SNB75 cells assessed as cell growth at 10 uM after 48 hr by SRB assay relative to control; settings: SNB-75, 48 h, read-out: Activity
[8] = tested on: Photobacterium leiognathi; assay: Growth inhibition of Photobacterium leiognathi Sh1 assessed as bio-luminescence at 0.25 mg/ml after 10 min by acute action test relative to control; design: scale not given: the % may be the effect or the level left
ACHN = assay: Cytotoxicity against Homo sapiens (human) ACHN cells assessed as cell growth at 10 uM after 48 hr by SRB assay relative to control; settings: read-out: Activity
SK-MEL-5 [9] = assay: Cytotoxicity against Homo sapiens (human) SK-MEL-5 cells assessed as cell growth at 10 uM after 48 hr by SRB assay relative to control; settings: SK-MEL-5, 48 h, read-out: Activity
UO-31 = assay: Cytotoxicity against Homo sapiens (human) UO31 cells assessed as cell growth at 10 uM after 48 hr by SRB assay relative to control; settings: UO-31, 48 h, read-out: Activity
MDA-MB-231 = assay: Cytotoxicity against Homo sapiens (human) MDA-MB-231 cells assessed as cell growth at 10 uM after 48 hr by SRB assay relative to control; settings: MDA-MB-231, 48 h, read-out: Activity
COLO 205 = assay: Cytotoxicity against Homo sapiens (human) COLO205 cells assessed as cell growth at 10 uM after 48 hr by SRB assay relative to control; settings: COLO 205, 48 h, read-out: Activity
A498 [10] = assay: Cytotoxicity against Homo sapiens (human) A498 cells assessed as cell growth at 10 uM after 48 hr by SRB assay relative to control; settings: A498, 48 h, read-out: Activity
KM12 = assay: Cytotoxicity against Homo sapiens (human) KM12 cells assessed as cell growth at 10 uM after 48 hr by SRB assay relative to control; settings: KM12, 48 h, read-out: Activity
SF-539 = assay: Cytotoxicity against Homo sapiens (human) SF539 cells assessed as cell growth at 10 uM after 48 hr by SRB assay relative to control; settings: SF-539, 48 h, read-out: Activity
SF-268 = assay: Cytotoxicity against Homo sapiens (human) SF268 cells assessed as cell growth at 10 uM after 48 hr by SRB assay relative to control; settings: SF-268, 48 h, read-out: Activity
SK-MEL-5 [11] = assay: Cytotoxicity against Homo sapiens (human) SK-MEL-5 cells after 48 hr by SRB assay; settings: SK-MEL-5, 48 h
NCI-H460 [12] = assay: Cytotoxicity against Homo sapiens (human) NCI-H460 cells assessed as cell growth at 10 uM after 48 hr by SRB assay relative to control; settings: NCI-H460, 48 h, read-out: Activity
[13] = read-out: pLC50 (the source's name) (converted)

How did the growth at 10 µM (BT-549) turn out when O=C(CSc1nc2ccccc2c2nc(=O)c(-c3ccccc3)nn12)NCc1ccc(F)cc1 was run?
Its growth at 10 µM is 45.9%.

What about the GI50 (A498 [1]) of the same compound?
Its GI50 is 1.12 µM.

What about the LC50 (A498 [1]) of the same compound?
Its LC50 is greater than 100 µM.

What about the TGI (A498 [1]; read-out: pTGI (converted)) of the same compound?
Its TGI is 34.7 µM.

And the Activity [2]?
The Activity was 76.9%.

What about the growth at 10 µM (HCT-116) of the same compound?
Its growth at 10 µM is 38.9%.

What about the Activity [3] of the same compound?
Its Activity is 77.8%.

And the GI50 (HOP-62)?
Its GI50 is 1.74 µM.

And the LC50 (HOP-62)?
The LC50 was greater than 100 µM.

What about the TGI (HOP-62; read-out: pTGI (converted)) of the same compound?
Its TGI is 6.92 µM.

And the GI50 (NCI-H460 [4])?
Its GI50 is 2.57 µM.

And the CC50 (NCI-H460 [4]; [13])?
Its CC50 is greater than 100 µM.

What about the TGI (NCI-H460 [4]; read-out: pTGI) of the same compound?
The TGI was greater than 100 µM.

And the Activity [5]?
The Activity was 166.7%.

What about the growth at 10 µM (CAKI-1) of the same compound?
The growth at 10 µM was -5.36%.

And the GI50 (NCI-H522)?
Its GI50 is 2.51 µM.

And the CC50 (NCI-H522; [13])?
Its CC50 is greater than 100 µM.

What about the TGI (NCI-H522; read-out: pTGI (converted)) of the same compound?
The TGI was 31.6 µM.

What about the growth at 10 µM (U-251) of the same compound?
Its growth at 10 µM is 19.9%.

What about the Activity [6] of the same compound?
Its Activity is 90.9%.

And the Activity [7]?
Its Activity is 78.8%.

What about the growth at 10 µM (HT-29) of the same compound?
Its growth at 10 µM is 30.9%.

What about the growth at 10 µM (SW-620) of the same compound?
Its growth at 10 µM is 45.7%.

And the growth at 10 µM (SNB-75)?
The growth at 10 µM was 44.3%.

What about the Activity [8] of the same compound?
The Activity was 91.7%.

What about the growth at 10 µM (ACHN) of the same compound?
The growth at 10 µM was 43.7%.

What about the growth at 10 µM (SK-MEL-5 [9]) of the same compound?
Its growth at 10 µM is 17.9%.

And the growth at 10 µM (UO-31)?
Its growth at 10 µM is 12.7%.

And the growth at 10 µM (MDA-MB-231)?
Its growth at 10 µM is 15.7%.

What about the growth at 10 µM (COLO 205) of the same compound?
The growth at 10 µM was 30.8%.

What about the growth at 10 µM (A498 [10]) of the same compound?
The growth at 10 µM was 24.8%.

And the growth at 10 µM (KM12)?
The growth at 10 µM was 9.97%.

And the growth at 10 µM (SF-539)?
The growth at 10 µM was 30.8%.

And the growth at 10 µM (SF-268)?
Its growth at 10 µM is 51.2%.

What about the GI50 (SK-MEL-5 [11]) of the same compound?
Its GI50 is 3.02 µM.

And the LC50 (SK-MEL-5 [11])?
The LC50 was greater than 100 µM.

What about the TGI (SK-MEL-5 [11]; read-out: pTGI) of the same compound?
Its TGI is greater than 100 µM.

And the growth at 10 µM (NCI-H460 [12])?
The growth at 10 µM was -25.4%.
